Test results published in paper PMC4585962, “A peptide factor secreted by Staphylococcus pseudintermedius exhibits properties of both bacteriocins and virulence factors” (Scientific Reports, 2015).
No end group written: not given here. *: point of attachment. For = O=C*

Assays:
Escherichia coli K12 = assay: MIC, microdilution assay; format: cell-based; settings: broth microdilution (CLSI), MHB, overnight 37 °C, OD 600 nm; highest concentration tested 100 μM
Description: (§1) The microbicidal activity of BacSp222 was determined using the microdilution method in compliance with Clinical and Laboratory Standards Institute (CLSI, for bacteria) guidelines M7-A7[57] and in compliance with the European Committee on Antimicrobial Susceptibility Testing - Subcommittee on Antifungal Susceptibility Testing (EUCAST-AFST, for fungi)[58]. Briefly, the microorganisms were cultivated in dedicated liquid media to reach the early exponential phase or, in the case of Streptococcus spp., grown overnight on agar MHB supplemented with 2.5% (v/v) lysed horse blood (LHB). Subsequently, the microorganisms were diluted to 1 × 10^6 CFU/ml (estimated using an Eddy Jet 2 automatic spiral plater, IUL) in MHB; in MHB supplemented with 5% (v/v) LHB (for streptococci); or, in the case of Candida albicans, in RPMI-1640 medium (Thermo) without L-Glu and phenol red, supplemented with 0.6 g/l L-Glu, 34.53 g/l 3-(N-morpholino)propanesulphonic acid and 18 g/l glucose, pH 7.0. Fifty microliters of microorganism suspension were mixed with an equal volume of appropriate medium containing serial 2- or 1.5-fold dilutions of BacSp222. After the cultures were incubated overnight at 37 °C, the optical density (OD) at 600 nm was measured. The minimal inhibitory concentration (MIC), calculated as a mean value from three independent measurements, was defined as the minimum peptide concentration for which an increase in OD was not observed compared to uninoculated broth.

[1] = test system: Lactococcus lactis subsp. lactis ŁOCK 0871 strain 239; assay: MIC, microdilution assay; format: cell-based; settings: broth microdilution (CLSI), MHB, overnight 37 °C, OD 600 nm; mean of three independent measurements
Description: as §1

[2] = test system: Staphylococcus aureus ATCC 25923; assay: MIC, microdilution assay; format: cell-based; settings: broth microdilution (CLSI), MHB, overnight 37 °C, OD 600 nm; mean of three independent measurements
Description: as §1

[3] = test system: Staphylococcus aureus DSM 26258 (CH91); assay: MIC, microdilution assay; format: cell-based; settings: broth microdilution (CLSI), MHB, overnight 37 °C, OD 600 nm; mean of three independent measurements
Description: as §1

[4] = test system: Staphylococcus aureus MRSA USA300 strain FPR3757; assay: MIC, microdilution assay; format: cell-based; settings: broth microdilution (CLSI), MHB, overnight 37 °C, OD 600 nm; mean of three independent measurements
Description: as §1

[5] = test system: B. subtilis 1A751 (pALCP2G); assay: GFP release assay; format: cell-based, Bacillus subtilis; settings: 2 × 10^6 CFU in PBS, 1 h 37 °C, 0.23 to 15 μM BacSp222, fluorescence of supernatant 480/510 nm
Description: The bacteria transformed with GFP-encoding plasmids (pCN68[59] for S. aureus RN4220; pALCP2G[60] for B. subtilis 1A751[61] and E. coli DH5α) were grown overnight in TSB supplemented with appropriate antibiotics, washed twice and finally suspended in PBS. Fifty microliters of the suspensions containing 2 × 10^6 CFU of bacteria were then incubated for 1 h at 37 °C with serial dilutions of BacSp222 at concentrations ranging from 0.23 to 15 μM. Then, the bacteria were spun down, and the fluorescence in the supernatant was determined (Synergy H1 microplate reader, BioTek, 480/510 nm excitation/emission wavelengths). As the controls for 100% GFP release, S. aureus and B. subtilis were lysed using lysostaphin and chicken egg white lysozyme (Sigma), respectively, whereas the E. coli cells were disrupted by ultrasonication.

HSF cells = assay: Cell membrane integrity, propidium iodide / FDA fluorescence microscopy; format: cell-based, human; settings: media contained 0.5 or 15 μM BacSp222 (concentration of these values not stated), three independent experiments ± SD
[6] = test system: adipose-derived stem cells (ASC); assay: Cytotoxicity, LDH and MTT assays; format: cell-based; settings: 4 h exposure, said to be similar to the other cell types (Fig. S7)
Description: Human skin fibroblasts (HSF, ATCC CRL-2522), adipose-derived stem cells (ASCs, ATCC PCS-500-011), and HeLa human epithelioid cervix carcinoma cells (ATCC CCL-2) were maintained in Dulbecco’s modified Eagle’s medium (DMEM, Sigma) containing 1 g/l glucose, 10% (v/v) foetal bovine serum (FBS), 1 U/ml penicillin, 1 μg/ml streptomycin, and 2.5 μg/ml amphotericin B. Murine P388/D1 monocyte/macrophage cells (ATCC CCL-46) and murine RAW264.7 macrophage-like cells (ATCC TIB-71) were cultured in DMEM containing 4.5 g/l glucose, 5% (v/v) FBS, and antibiotics, as indicated above. Keratinocytes from human skin were grown in KBM Gold Medium (Lonza). All cells were incubated in standard conditions (5% CO2, 37 °C, >95% humidity). […] After a 30-min incubation (RT, in the dark), the reaction was stopped, and the absorbance was measured with a microplate reader (PowerWave X, BioTek Instruments) at 490 nm, followed by subtraction of the absorbance reference value at 690 nm. […] The absorbance of solubilized purple formazan was measured at 540 nm, followed by subtraction of the absorbance reference value at 690 nm. […] The amount of released haemoglobin was spectrophotometrically determined at 540 nm and compared with a positive control (erythrocytes lysed with 1% sodium dodecyl sulphate).

## For-MAGLLRFLLSKGRALYNWAKSHVGKVWEWLKSGATYEQIKEWIENALGWR [BacSp222]
Escherichia coli K12
  MIC ± SD: >100 µM
[1]
  MIC ± SD: 0.89 ± 0.00 µM
[2]
  MIC ± SD: 1.00 ± 0.36 µM
[3]
  MIC ± SD: 0.92 ± 0.23 µM
[4]
  MIC ± SD: 0.89 ± 0.00 µM
[5]
  leakage of GFP from recombinant cells: dose-dependent leakage of GFP was observed
HSF cells; 0.5 hours of incubation
  PI-positive cells: 39 ± 13.5%
HSF cells; 2 hours of incubation
  PI-positive cells: 74 ± 6.7%
HSF cells; 4 hours of incubation
  PI-positive cells: 97 ± 3.7%
[6]
  cytotoxic effect: sigmoidal, dose-dependent cytotoxic effect
